Structures are written as SMILES. Values after ≈ are worked out from the molar mass of the structure shown.

For this experiment, the system named is Susceptible (H37Rv) strain of Mycobacterium tuberculosis. Put plainly: Resazurin Microplate Assay (REMA), anti-tubercular activity, H37Rv. The experiment is classed as cell-based. The settings on record: 192 h, read-out: MIC Susceptible (H37Rv).
A word on the MIC: it is the lowest concentration found to suppress growth. Take `COc1ccc(Cl)cc1-n1ncc(-c2nnc(-c3ccc(Br)c(C)c3)o2)c1C` [Compound 7f, 2-(4-Bromo-3-methylphenyl)-5-(1-(5-chloro-2-methoxyphenyl)-5-methyl-1H-pyrazol-4-yl)-1,3,4-oxadiazole]: the MIC came out at 32 µg/mL (≈ 69.6 µM).

As to `COc1ccc(Cl)cc1-n1ncc(-c2nnc(-c3ccc(Br)cc3)o2)c1C` [Compound 7e, 2-(4-Bromophenyl)-5-(1-(5-chloro-2-methoxyphenyl)-5-methyl-1H-pyrazol-4-yl)-1,3,4-oxadiazole], the MIC stood at 8 µg/mL (≈ 17.9 µM).

`COc1ccc(Cl)cc1-n1ncc(-c2nnc(-c3ccc(C)c([N+](=O)[O-])c3)o2)c1C` [Compound 7j, 2-(1-(5-Chloro-2-methoxyphenyl)-5-methyl-1H-pyrazol-4-yl)-5-(4-methyl-3-nitrophenyl)-1,3,4-oxadiazole]: the MIC came to 32 µg/mL (≈ 75.1 µM).

As to `COc1ccc(Cl)cc1-n1ncc(-c2nnc(-c3ccc(Cl)cc3)o2)c1C` [Compound 7a, 2-(1-(5-Chloro-2-methoxyphenyl)-5-methyl-1H-pyrazol-4-yl)-5-(4-chlorophenyl)-1,3,4-oxadiazole], the MIC was 4 µg/mL (≈ 9.97 µM).

Consider `COc1ccc(Cl)cc1-n1ncc(-c2nnc(-c3ccc(C)c(Br)c3)o2)c1C` [Compound 7c, 2-(3-Bromo-4-methylphenyl)-5-(1-(5-chloro-2-methoxyphenyl)-5-methyl-1H-pyrazol-4-yl)-1,3,4-oxadiazole], for which the MIC turned out to be 16 µg/mL (≈ 34.8 µM).

Regarding `COc1ccc(Cl)cc1-n1ncc(-c2nnc(-c3ccccc3)o2)c1C` [Compound 7d, 2-(1-(5-Chloro-2-methoxyphenyl)-5-methyl-1H-pyrazol-4-yl)-5-phenyl-1,3,4-oxadiazole], the MIC was 16 µg/mL (≈ 43.6 µM).

In the case of `COc1ccc(Cl)cc1-n1ncc(-c2nnc(-c3cccc(F)c3)o2)c1C` [Compound 7g, 2-(1-(5-Chloro-2-methoxyphenyl)-5-methyl-1H-pyrazol-4-yl)-5-(3-fluorophenyl)-1,3,4-oxadiazole], the MIC turned out to be 8 µg/mL (≈ 20.8 µM).

On to `COc1ccc(Cl)cc1-n1ncc(-c2nnc(-c3ccc(F)cc3)o2)c1C` [Compound 7b, 2-(1-(5-Chloro-2-methoxyphenyl)-5-methyl-1H-pyrazol-4-yl)-5-(4-fluorophenyl)-1,3,4-oxadiazole], for which the MIC was 4 µg/mL (≈ 10.4 µM).

As to `COc1ccc(Cl)cc1-n1ncc(-c2nnc(-c3cc(Cl)cc(Cl)c3)o2)c1C` [Compound 7h, 2-(1-(5-Chloro-2-methoxyphenyl)-5-methyl-1H-pyrazol-4-yl)-5-(3,5-dichlorophenyl)-1,3,4-oxadiazole], the MIC amounted to 4 µg/mL (≈ 9.18 µM).

Take `COc1ccc(Cl)cc1-n1ncc(-c2nnc(-c3ccc(Cl)c(Cl)c3)o2)c1C` [Compound 7i, 2-(1-(5-Chloro-2-methoxyphenyl)-5-methyl-1H-pyrazol-4-yl)-5-(3,4-dichlorophenyl)-1,3,4-oxadiazole]: the MIC is 16 µg/mL (≈ 36.7 µM).

For the origin of these results see patent US11998532B1 (priority 2023, dated 2024).
